Reference: ChEMBL document CHEMBL4321783, “Recent Progress in Natural-Product-Inspired Programs Aimed To Address Antibiotic Resistance and Tolerance” (J Med Chem, 2019)
Values after ≈ are worked out from the molar mass of the structure shown. Values belong to the molecule of their own block, whether it stands above or below them. Positions of bridges follow the written chain, without caps; N, C: chain ends. Non-standard residues stand in square brackets, D forms with d. Residues, ends and D or L forms follow the SMILES beside them. *: point of attachment. Phe(3,5-F2) = N[C@@H](Cc1cc(F)cc(F)c1)C(=O)O; Pip(4S-Me) = C[C@H]1CCN[C@H](C(=O)O)C1; Heptenoyl(2E) = CCCC/C=C/C(=O)*; aThr = C[C@H](O)[C@H](N)C(=O)O

Assays:
Staphylococcus aureus [1] = test: Antibiofilm activity against methicillin-resistant Staphylococcus aureus 1707 assessed as induction of change in gene expression 0.625 uM after 20 hrs by RNA sequencing data based analysis relative to control; format: functional
Staphylococcus aureus [2] = test: Antibiofilm activity against methicillin-resistant Staphylococcus aureus assessed as increase in isdB expression at 0.625 uM after 4 hrs by RT-qPCR analysis relative to control; format: functional
Pseudomonas aeruginosa [3] = test: Growth inhibition of Pseudomonas aeruginosa PA14 after 24 hrs; format: functional, organism-based; details: PA14, 24 h
Pseudomonas aeruginosa [4] = test: Growth inhibition of Pseudomonas aeruginosa PAO1 after 24 hrs; format: functional, organism-based; details: PAO1, 24 h
Staphylococcus aureus [5] = test: Antibacterial activity against Staphylococcus aureus by CLSI protocol based dilution method; format: functional
Staphylococcus aureus [6] = test: Antibiofilm activity against […] methicillin-resistant Staphylococcus aureus 2 assessed as induction of biofilm eradication incubated for 24 hrs followed by 3 times wash out with water and subsequent compound addition measured after 24 hrs; format: functional
Staphylococcus aureus [7] = test: Antibiofilm activity against methicillin-resistant Staphylococcus aureus 2 assessed as induction of biofilm eradication incubated for 24 hrs followed by 3 times wash out with water and subsequent compound addition measured after 24 hrs; format: functional

SMILES: Oc1c(Br)cc(I)c2nc3cc(Cl)c(Cl)cc3nc12
fold change (FC) (Staphylococcus aureus [1]): >=2 | fold change (FC) (Staphylococcus aureus [2]): 22.3

SMILES: CCCCCC[C@H](CCCCC[C@@H](O)C(N)=O)OC(=O)[C@@H]1CC=CN1C(=O)c1ccccc1O
IC50 (Pseudomonas aeruginosa [3]): 67 to 130 nM | IC50 (Pseudomonas aeruginosa [4]): 1000 nM

MIC (Staphylococcus aureus [5]): 0.0306 µM (≈ 0.024 µg/mL)
SMILES: CCCC/C=C/C(=O)N[C@@H](Cc1cc(F)cc(F)c1)C(=O)N[C@@H]1C(=O)N2CCC[C@H]2C(=O)N2CC[C@H](C)C[C@H]2C(=O)N[C@@H](C)C(=O)N2CCC[C@H]2C(=O)O[C@H]1C ({Heptenoyl(2E)}-[Phe(3,5-F2)][aThr]P[Pip(4S-Me)]AP; ester 2-C)

SMILES: CN[C@H](CC(C)C)C(=O)N[C@H]1C(=O)N[C@@H](CC(N)=O)C(=O)N[C@H]2C(=O)N[C@H]3C(=O)N[C@H](C(=O)N[C@H](C(=O)O)c4cc(O)cc(O)c4-c4cc3ccc4O)[C@H](O)c3ccc(c(Cl)c3)Oc3cc2cc(c3O[C@@H]2O[C@H](CO)[C@@H](O)[C@H](O)[C@H]2O[C@H]2C[C@](C)(N)[C@H](O)[C@H](C)O2)Oc2ccc(cc2Cl)[C@H]1O [VANCOMYCIN]
MBEC (Staphylococcus aureus [6]): 4 µM | MBEC (Staphylococcus aureus [7]): >2000 µM
